Among the test systems are HL-60(TB) leukemia; HOP-62 NSCLC; IGROV1 ovarian; KM12 colon; MCF7 breast; MDA-MB-231 breast; NCI-H460 lung; OVCAR-4 ovarian; SNB-75 CNS; UACC-257 melanoma.
Holding throughout (test): NCI anticancer screen, dose series, 48 h

Structures are written as SMILES.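 Briefly, cells in 96-well plates were exposed to five compound concentrations for 48 h, and endpoints were estimated by linear interpolation. GI50 marks 50% less growth. The concentration for full growth arrest is given as TGI.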 Some results are limits rather than exact numbers.

Regarding `COc1cc2oc(-c3cccc(C(=O)Nc4ccc(C)cc4)c3)cc(=O)c2c(OC)c1OC`, the GI50 in the assay with HL-60(TB) leukemia is 1.86 µM; with HOP-62 NSCLC, 3.68 µM; with IGROV1 ovarian it was 2.99 µM; in the assay on KM12 colon, 3.66 µM; with MCF7 breast it was 2.53 µM; with MDA-MB-231 breast, 0.468 µM. Further, the GI50 in the assay on NCI-H460 lung is 1.47 µM; with OVCAR-4 ovarian, 2 µM; with SNB-75 CNS, 1.16 µM; with UACC-257 melanoma it was 1.92 µM. For the same compound, the TGI in the assay on HL-60(TB) leukemia is 4.59 µM; in the assay with HOP-62 NSCLC, 28.3 µM; with IGROV1 ovarian, greater than 100 µM; in the assay on KM12 colon it was greater than 100 µM; in the assay with MCF7 breast, greater than 100 µM; in the assay on MDA-MB-231 breast, 3.23 µM. In addition, the TGI in the assay with NCI-H460 lung was greater than 100 µM; in the assay with OVCAR-4 ovarian it was greater than 100 µM; in the assay with SNB-75 CNS it was 5.38 µM; with UACC-257 melanoma it was 4.5 µM.

On to `CC(=O)N1N=C(c2ccc(Nc3nc(Nc4ccc(F)cc4)nc(Nc4ccc(Cl)cc4)n3)cc2)CC1c1ccc(N(C)C)cc1` (centres undefined), for which the GI50 in the assay on HL-60(TB) leukemia was 5.04 µM; in the assay with HOP-62 NSCLC, 3.25 µM; in the assay on IGROV1 ovarian, 2.96 µM; in the assay with KM12 colon, 6.02 µM; in the assay on MCF7 breast, 3.94 µM; in the assay on MDA-MB-231 breast it was 5.66 µM. Further, the GI50 in the assay on NCI-H460 lung is 6.68 µM; in the assay with OVCAR-4 ovarian, 4.41 µM; in the assay with SNB-75 CNS, 3.02 µM; in the assay on UACC-257 melanoma it was 7.67 µM. Further, the TGI turned out to be 15.7 µM in the assay on HL-60(TB) leukemia; 13.2 µM in the assay with HOP-62 NSCLC; 15.8 µM with IGROV1 ovarian; 20.9 µM in the assay with KM12 colon; 26.9 µM with MCF7 breast; 21 µM in the assay on MDA-MB-231 breast. Further, the TGI in the assay with NCI-H460 lung is 45 µM; in the assay on OVCAR-4 ovarian, greater than 100 µM; with SNB-75 CNS it was 20.3 µM; in the assay on UACC-257 melanoma, 26.1 µM.

As to `CCOC(=O)Nc1ccc(C(=O)/C=C/c2ccccc2)cc1`, the GI50 was 31.4 µM in the assay on HL-60(TB) leukemia; 20.4 µM with HOP-62 NSCLC; 19.3 µM with IGROV1 ovarian; 4.8 µM in the assay with KM12 colon; 3.14 µM with MCF7 breast; 33.4 µM in the assay on MDA-MB-231 breast. Moreover, the GI50 in the assay on NCI-H460 lung was 28.9 µM; in the assay on OVCAR-4 ovarian, 43.8 µM; in the assay with SNB-75 CNS it was 31.6 µM; in the assay on UACC-257 melanoma, 55 µM. The TGI with HL-60(TB) leukemia is greater than 100 µM; in the assay on HOP-62 NSCLC, 47.3 µM; in the assay on IGROV1 ovarian, greater than 100 µM; with KM12 colon, 17.6 µM; with MCF7 breast it was 33.9 µM; in the assay on MDA-MB-231 breast, greater than 100 µM. Moreover, the TGI in the assay with NCI-H460 lung, in the assay with OVCAR-4 ovarian, in the assay with SNB-75 CNS and with UACC-257 melanoma was greater than 100 µM throughout.

Regarding `O=C(NCCNC(=O)c1ccc(F)cc1)Nc1ccc(-n2cc(-c3ccncc3)c(-c3ccc(Cl)c(O)c3)n2)cc1`, the GI50 was 0.273 µM in the assay on HL-60(TB) leukemia; 0.697 µM in the assay on HOP-62 NSCLC; 0.659 µM with IGROV1 ovarian; 0.433 µM in the assay with KM12 colon; 0.323 µM in the assay with MCF7 breast; 0.438 µM with MDA-MB-231 breast. Further, the GI50 is 0.329 µM with NCI-H460 lung, 0.585 µM in the assay with OVCAR-4 ovarian, 3.05 µM in the assay with SNB-75 CNS and 1.37 µM in the assay on UACC-257 melanoma. Besides, the TGI in the assay on HL-60(TB) leukemia was 0.848 µM; in the assay with HOP-62 NSCLC, 23.1 µM; with IGROV1 ovarian, greater than 100 µM; in the assay on KM12 colon, 2.28 µM; with MCF7 breast, greater than 100 µM; in the assay on MDA-MB-231 breast it was 2.26 µM. Besides, the TGI in the assay with NCI-H460 lung was 10.5 µM; in the assay with OVCAR-4 ovarian it was greater than 100 µM; with SNB-75 CNS it was greater than 100 µM; in the assay with UACC-257 melanoma, 5.89 µM.

For `Oc1cc2c(cc1C(c1ccc3c(c1)OCO3)N1CCN(C(c3ccc4c(c3)OCO4)c3cc4c(cc3O)OCO4)CC1)OCO2` (centres undefined), the TGI is greater than 100 µM in the assay on HL-60(TB) leukemia; 64.7 µM in the assay with HOP-62 NSCLC; 35.7 µM with IGROV1 ovarian; 30.8 µM with KM12 colon; greater than 100 µM in the assay with MCF7 breast; 29.1 µM in the assay with MDA-MB-231 breast. Also, the TGI is greater than 100 µM in the assay on NCI-H460 lung, 16.5 µM in the assay on OVCAR-4 ovarian, 13.7 µM in the assay with SNB-75 CNS and 33.4 µM with UACC-257 melanoma.

With `O=C(c1ccccc1)c1ccc(O)c2ncccc12`, the GI50 is 2.09 µM in the assay with HL-60(TB) leukemia; 5.31 µM with HOP-62 NSCLC; 2.4 µM with IGROV1 ovarian; 3.25 µM with KM12 colon; 2.93 µM in the assay with MCF7 breast; 3.6 µM in the assay with MDA-MB-231 breast. For the same compound, the GI50 in the assay on NCI-H460 lung was 1.75 µM; in the assay on OVCAR-4 ovarian, 2.96 µM; in the assay on SNB-75 CNS it was 15 µM; in the assay with UACC-257 melanoma, 5.75 µM. For the same compound, the TGI with HL-60(TB) leukemia is 8.82 µM; in the assay with HOP-62 NSCLC it was 48.6 µM; in the assay on IGROV1 ovarian it was 11.9 µM; in the assay with KM12 colon, 16.9 µM; in the assay with MCF7 breast, 9.08 µM; in the assay on MDA-MB-231 breast, 64.3 µM. Moreover, the TGI in the assay on NCI-H460 lung is 16.2 µM; in the assay on OVCAR-4 ovarian, 11 µM; in the assay with SNB-75 CNS, 90.7 µM; in the assay on UACC-257 melanoma it was greater than 100 µM.

Take `COc1ccc(C2CC(c3cccc(OC)c3)=NN2C(=O)c2cc(OC)c(OC)c(OC)c2)cc1` (centres undefined): the GI50 in the assay with HL-60(TB) leukemia was 0.609 µM; in the assay with HOP-62 NSCLC, greater than 23.1 µM; in the assay on IGROV1 ovarian, 1.49 µM; in the assay with KM12 colon, 0.717 µM; with MCF7 breast it was 0.367 µM; in the assay on MDA-MB-231 breast, 1.94 µM. Further, the GI50 in the assay with NCI-H460 lung was 1.75 µM; with OVCAR-4 ovarian, 10.8 µM; in the assay with SNB-75 CNS it was 0.624 µM; in the assay on UACC-257 melanoma it was 83.8 µM. The TGI in the assay with HOP-62 NSCLC, with IGROV1 ovarian, in the assay on KM12 colon, with MCF7 breast, in the assay with MDA-MB-231 breast and in the assay with NCI-H460 lung was greater than 100 µM in each case. In addition, the TGI with OVCAR-4 ovarian, in the assay on SNB-75 CNS and in the assay on UACC-257 melanoma was greater than 100 µM throughout.

For the origin of these results see PubChem BioAssay (NCI).
